Data: article PMC8273887 (Journal of Medicinal Chemistry, 2021)
“Also recorded” adds a separate entry of the source. Bridge positions count the residues as written; N and C are the ends. Ends that are not written are not given here.

Columns and labels:
[1] = target: T1, CXCR4 (Homo sapiens, UniProt P61073); assay: Inositol 1 phosphate (IP1) accumulation assay (HTRF) in COS-7 cells transfected with CXCR4; assay type: cell-based; conditions: COS-7 transiently co-transfected with CXCR4-eYFP and chimeric GαΔ6qi4myr; stimulation 1 h, 37 °C, triplicate; HTRF; n ≥ 2 independent experiments; read-out: EC50 (CXCR4 activation, IP1 accumulation)
T1 construct: expressed in transfected cells; host or cells: COS-7 (African green monkey), transient co-transfection with GαΔ6qi4myr
T1 sequence (P61073 whole entry): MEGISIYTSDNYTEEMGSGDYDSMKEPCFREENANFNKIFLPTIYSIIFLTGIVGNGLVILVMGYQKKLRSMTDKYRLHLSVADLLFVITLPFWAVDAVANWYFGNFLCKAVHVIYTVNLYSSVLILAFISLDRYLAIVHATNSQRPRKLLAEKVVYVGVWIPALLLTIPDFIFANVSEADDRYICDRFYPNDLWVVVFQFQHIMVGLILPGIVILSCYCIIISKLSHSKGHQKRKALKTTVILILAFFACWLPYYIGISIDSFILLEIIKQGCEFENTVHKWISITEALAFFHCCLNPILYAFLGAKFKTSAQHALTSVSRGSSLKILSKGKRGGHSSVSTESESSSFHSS
Excerpt: CXCR4 is a member of the G protein-coupled receptor (GPCR) family[58] and proposed as a target receptor for TFF3 to mediate wound healing.[30],[39] We therefore pharmacologically characterized TFF3(C^57Acm) and TFF3 homodimer at CXCR4. We used a chimeric Gαiq protein to switch the pathway to the Gαq signaling, which leads to the activation of the phospholipase and allows measurement of CXCR4 activation through the production of inositol 1 phosphate (IP1).[61]−[63] We measured IP1 accumulation upon stimulation with TFF3(C^57Acm) and TFF3 homodimer in fibroblast-like COS-7 cells transiently transfected with CXCR4.[58] This is a competitive immunoassay, based on the HTRF technology, where native IP1 produced by cells compete with labeled IP1 (acceptor) for binding to anti-IP1-cryptate (donor). The specific signal (i.e., Förster resonance energy transfer, FRET) is inversely proportional to the concentration of IP1 in the sample. The calculation of the fluorescence ratio eliminates possible medium interferences.[64]
COS-7 cells (fibroblast-like cells from African green monkey) were transiently co-transfected with the CXCR4 C-terminally fused to eYFP in pVitro2 vector and the untagged chimeric G protein GαΔ6qi4myr in pcDNA3.1 plasmid using Metafectene Pro according to manufacturer’s protocol. The cells were cultured in DMEM with higher glucose and supplemented with 10% FCS without any antibiotics at 37 °C and 5% CO2 in 95% humidity. Cisbio IP-One Gq assay kit was used according to previous description with minor modifications to measure activity.[80] Briefly, a standard curve was prepared in HBSS (Hanks’ balanced salt solution) with 20 mM LiCl to determine the linear range of the assay and 10 000 cells/well were cultured overnight in a 384-well flat white plate (Greiner Bio-one GmbH, Frickenhausen, Germany). TFF3 and its homodimer as well as CXCL12 were diluted in HBSS containing 20 mM LiCl. Stimulation was carried out for 1 h in triplicate at 37 °C. Subsequently, 3 μL of IP1-d2 and 3 μL of Ab-cryptate in lysis buffer were added to the wells and incubated on a tumbler for 60 min at 25 °C. Fluorescence was then measured at 620 and 665 nm and the HTRF (homogeneous time-resolved fluorescence) ratio (665/620 nm) was calculated. Data analysis was performed with Prism (version 7, GraphPad, La Jolla). Tested compounds were normalized to CXCL12 wild type, with the highest HTRF ratio set to 0% and the lowest HTRF ratio set to 100% response. […] The final concentration range of 10^–12 to 10^–5 M to CXCL12 and 1 or 10 μM to TFF3(C^57Acm) and TFF3 homodimer was achieved by adding the compounds from a threefold concentrated stock solution.

[2] = tested on: pepsin; assay: simulated gastric fluid (SGF, containing pepsin, pH 1.3); conditions: porcine, 37 °C, up to 24 h
[3] = tested on: porcine pancreatin; assay: simulated intestinal fluid (SIF, containing pancreatic enzymes, pH 6.8); conditions: 37 °C, up to 24 h
[4] = tested on: trypsin; assay: trypsin
[5] = Stability in simulated intestinal fluid (SIF); assay type: in vitro ADME; conditions: pig, simulated intestinal fluid (SIF) with porcine pancreatin
Procedure: (§1) We exposed TFF3(C^57Acm) and TFF3 homodimer to simulated gastric fluid (SGF, containing pepsin, pH 1.3) and simulated intestinal fluid (SIF, containing pancreatic enzymes, pH 6.8), and monitored the mixture over 24 h by analytical RP-HPLC and MS. The N- and C-termini of TFF3 and its homodimer were readily truncated in both SGF and SIF (Figure 4A,B). In SGF, TFF3 was cleaved at Leu^6/Ser^7 followed by cleavage at Glu^54/Ala^55 (t1/2 < 5 min). In SIF, TFF3 was cleaved first at Thr^58/Phe^59 followed by cleavage at Leu^6/Ser^7, Glu^56/Cys^57, and Ala^55/Glu^56 (t1/2 < 5 min). TFF3 homodimer, in both SGF (t1/2 ∼ 40 min) and SIF (t1/2 < 5 min), was first broken down to monomeric TFF3 through simultaneous cleavage at Leu^6 and Glu^54 or Ala^55, eventually leading to the same metabolites as TFF3 (Figure 4B).
(§2) Simulated gastric fluid (SGF) was prepared by dissolving 20 mg of NaCl and 8 mg of pepsin in 70 μL of concentrated HCl (32%), and the volume was diluted to 10 mL with Milli-Q water (pH 1.3).[76],[77] Simulated intestinal fluid (SIF) was prepared by dissolving 68 mg of KH2PO4 in 500 μL of Milli-Q water followed by the addition of 800 μL of 0.2 M NaOH and 100 mg of porcine pancreatin, and the volume was adjusted to 10 mL with Milli-Q water (pH 6.8).[76],[77] Peptide stock solution (1 mM; 15 μL) was added to SGF (285 μL) or SIF (285 μL) and incubated at 37 °C. Samples (30 μL) from SGF and SIF were taken at 0, 5, 15, and 30 min and 1, 2, 4, 8, and 24 h timepoints and subsequently quenched with 30 μL of 0.2 M Na2CO3 (SGF) or 30 μL of 5% aqueous TFA (SIF). The samples were analyzed by analytical RP-HPLC (30 μL) and/or LC-MS (20 μL). The amount of peptide remaining was determined by measuring the peak area and expressing it as a % of the peak area at time 0. Peptide half-life (t1/2) was determined from the peptide degradation profiles using an exponential one-phase decay fit in Prism (version 7, GraphPad, La Jolla). LC-MS analysis was performed in a Q-Star Pulsar mass spectrometer (SCIEX, Ontario, Canada), and the raw data spectra were processed using the peptide reconstruction tool in the BioAnalyst software to identify the mass of the metabolites. The stability of the disulfide bonds was assessed through incubation of the peptides (10 μM) with 10 equiv of reduced glutathione (GSH; 100 μM) in sodium phosphate (50 mM) buffer at pH 7.2. Samples were taken at timepoints 0, 4, 8, and 24 h, quenched by adding 10% TFA, and analyzed by analytical RP-HPLC using an analytical C3 column (Agilent Zorbax SB-C3, 5 μm, 2.1 mm × 250 mm, 300 Å).

[6] = Stability in simulated gastric fluid (SGF); assay type: in vitro ADME, porcine
Procedure: as §1, §2

[7] = tested on: SH-SY5Y cells; assay: Antiapoptotic assay (etoposide-induced cell death, caspase-3/7 activity); assay type: cell-based, human; conditions: etoposide 10 μM and peptide 10 μM added at the same time, caspase-3/7 activity after 6 h, n ≥ 3 independent experiments
Procedure: (A) Cell death was induced with etoposide (10 μM), and cells were treated with 10 μM of TFF3. Etoposide and TFF3 were added at the same time. Caspase-3/7 activity was measured after 6 h. […] Z-DEVD-FMK (50 μM; caspase-3 inhibitor) was used as the positive control. E: etoposide, E + C3I: etoposide + caspase-3 inhibitor. One-way analysis of variance (ANOVA) followed by Dunnett correction was performed to assess differences between treated cells and etoposide only. *p < 0.05, **p < 0.01.
SH-SY5Y cells were seeded (13–15 × 10^3 cells/well) in 96-well microplates in DMEM with 10% (v/v) fetal calf serum (FCS; Gibco), 2 mM L-glutamine, and 100 units/mL penicillin/streptomycin. The media was replaced with low riboflavin, complete Ham’s F12 medium with 10% (v/v) fetal calf serum, 2 mM L-glutamine, and 100 units/mL penicillin/streptomycin before the live-cell imaging. Cells were treated with the etoposide or the caspase-3 inhibitor or TFF3(C^57Acm) or TFF3 homodimer in the presence of IncuCyte caspase-3/7 green apoptosis reagent. Data were acquired using an IncuCyte ZOOM instrument with standard scan type setting (4 images per well) every 2 h for 48 h.

## CXCL12: natural CXCR4 ligand; recombinant human CXCL12 from E. coli with additional N-terminal methionine; positive control [reference compound]
[1]
  EC50: 5.9 nM

## EEYVGLSANQCAVPAKDRVDCGYPHVTPKECNNRGCCFDSRIPGVPWCFKPLQEAEC(Acm)TF
[2]
  cleaved bond: Leu6-Ser7, first_seen; also recorded: Glu54-Ala55
[3]
  cleaved bond: Thr58-Phe59, first_seen; also recorded: Leu6-Ser7; also recorded: Glu56-Cys57; also recorded: Ala55-Glu56

## QCAVPAKDRVDCGYPHVTPKECNNRGCCFDSRIPGVPWCFK
[2]
  not cleaved: stable in SGF for 24 h
[4]
  cleaved bond: cleavages at Lys^16, Arg^18, and Arg^41; also recorded: Arg41-Ile42
  fragment found: Glu^30-Arg^34; also recorded: Ile^42-Lys^50

## SANQCAVPAKDRVDCGYPHVTPKECNNRGCCFDSRIPGVPWCFKPLQE
[2]
  not cleaved: stable in SGF with a half-life over 24 h

## SANQCAVPAKDRVDCGYPHVTPKECNNRGCCFDSRIPGVPWCFKPLQE-NH2 (disulfide 5-31, 15-30, 25-42) [TFF3_7-54]
[5]; pH 6.8, 15 μL of 1 mM stock in 285 μL, 37 °C, monitored over 24 h, RP-HPLC/LC-MS, read-out: half-life in SIF
  half-life at 50 μM: > 24 h
[5]; pH 6.8, 37 °C, 24 h, RP-HPLC/MS, read-out: degradation in SIF within 24 h
  metabolised at 24 h, 50 μM: ~25%
[6]; SGF with pepsin, pH 1.3, 37 °C, 24 h, RP-HPLC and MS
  stability in SGF over 24 h (in words): remained stable
[6]; simulated gastric fluid (SGF) with pepsin, pH 1.3, 15 μL of 1 mM stock in 285 μL, 37 °C, monitored over 24 h, RP-HPLC/LC-MS, read-out: half-life in SGF
  half-life at 50 μM: > 24 h
[7]
  reduction of etoposide-induced cell death (caspase-3/7 active objects): active in the anti-apoptosis assay, equivalent to TFF3 and TFF3 homodimer

## S^7ANQCAVPAKDRVDCGYPHVTPKECNNRGCCFDSRIPGVPWCFKPLQEA^55
[3]
  not cleaved: remained stable even after 24 h
